Blank lines part the entries; values can stand above or below the molecule they belong to.
How the values were obtained:
[1] = system: luciferase activity in the liver; assay: Luciferase activity in liver after intravenous luciferase mRNA LNP; type: in vivo; settings: 0.5 mg/kg IV, 6 h post-IV administration, BALB/c mice (n = 4)
Description: Frozen aliquots of liver were thawed and homogenized in 1 mL of 1×CCLR (Cell Culture Lysis Reagent) using a FastPrep® homogenizer. The homogenate was then centrifuged at 16,000 RPM for 10 minutes at 4° C. Twenty (20) μL of the supernatant was loaded into a 96-well white plate and luminescence measured following addition of luciferase reagent (Promega Luciferase Assay System). Luciferase activity was determined by comparing luminescence of the homogenized samples to luciferase protein standards. To account for any quenching of luminescence by components in the liver homogenate, luciferase was added to the liver homogenates of untreated animals and the resulting luminescence measured. The resulting quench factor was applied to all samples to obtain the corrected luciferase activity, and normalized per unit mass of tissue analyzed.

[2] = Particle characteristics of LNPs containing luciferase mRNA and novel ionizable lipids; type: physicochemical
Description: The lipid solution contains 4 components: a PEG-conjugated lipid, an ionizable lipid, cholesterol, and a phospholipid (e.g., DSPC). Lipid stocks were prepared using the lipid identities and molar ratios as described, to achieve a total concentration of ˜7 mg/mL in 100% ethanol. Firefly luciferase mRNA (TriLink Biotechnologies, L-7202) or ornithine transcarbamylase (OTC) mRNA (TriLink Biotechnologies, custom designed) was diluted in acetate, pH 5 buffer and nuclease free water to achieve a target concentration of 0.366 mg/mL mRNA in 100 mM acetate, pH 5. Equal volumes of the lipid and nucleic acid solutions were blended at a flow rate of 400 mL/min through a T-connector, and diluted with ˜4 volumes of PBS, pH 7.4. Formulations were placed in Slide-A-Lyzer dialysis units (MWCO 10,000) and dialyzed overnight against 10 mM Tris, 500 mM NaCl, pH 8 buffer. Following dialysis, the formulations were concentrated to ˜0.6 mg/mL using VivaSpin concentrator units (MWCO 100,000) and dialyzed overnight against 5 mM Tris, 10% sucrose, pH 8 buffer. Formulations were filtered through a 0.2 μm syringe filter (PES membrane). Nucleic acid concentration was determined by the RiboGreen assay. Particle size and polydispersity were determined using a Malvern Nano Series Zetasizer.
LNP formulations containing novel ionizable lipids all produced stable particles with high encapsulation efficiency (Tables 1-7).

[3] = Table 1, luciferase mRNA LNP 1.6:54.6:32.8:10.9
[4] = Table 1, luciferase mRNA LNP 1.6:54.6:32.8:10.9 PEG2000-C-DMA:Ionizable lipid:Cholesterol:DSPC
[5] = Table 5, luciferase mRNA LNP 1.6:54.6:32.8:10.9
[6] = Table 2, luciferase mRNA LNP 1.6:54.6:32.8:10.9
[7] = Table 4, luciferase mRNA LNP 1.6:54.6:32.8:10.9

SMILES: CCCCCCCCCCC(CCCCCCC(=O)OCC(CCCCCC)CCCCCCCC)N(CCCN(C)C)C(=O)CCCCCCC(=O)OCC(CCCC)CCCCCC (stereo not drawn) [Compound 78]
Luc Activity ([1]; Table 11): 5.30E+07 pg/g liver

SMILES: CCCCCCCCCCC(CCCCCCC(=O)OC(CCCCCCCC)CCCCCCCC)N(CCCCCCCC(=O)OCCC(CCCCC)CCCCC)C(=O)CCCN(C)C (stereo not drawn) [Compound 68]
Luc Activity ([1]; Table 12): 4.36E+07 pg/g liver

Final Product % EE [2, 3]: 94%
Final Product PDI [2, 3]: 0.09
Final Product Z-avg [2, 4]: 62 nm
SMILES: CCCCCCCCCCCS(=O)(=O)N(CCCN(C)C)C(CCCCCCCCC)CC(=O)OCC(CCCCCC)CCCCCCCC (stereo not drawn) [Compound 51, 2-hexyldecyl 3-{N-[3-(dimethylamino)propyl]undecane-1-sulfonamido}dodecanoate]
Luc Activity ([1]; Table 8): 2.50E+07 pg/g liver

Final Product % EE [2, 5]: 97%
Final Product PDI [2, 5]: 0.10
Final Product Z-avg [2, 5]: 65 nm
SMILES: CCCCCCCCCCC(CCCCCC(=O)OCC(CCCCCC)CCCCCCCC)N(OCCCN(C)C)C(=O)CCCCCCCCC (stereo not drawn) [Compound 42, 2-hexyldecyl 7-{N-[3-(dimethylamino)propoxy]decanamido}heptadecanoate]
Luc Activity ([1]; Table 12): 1.14E+07 pg/g liver

SMILES: CCCCC/C=C\CCCC(CCC/C=C\CCCCC)CN(C(=O)CCCCN(C)C)C(CCCCCCCCCC)CCCCCCC(=O)OCCCCCCCCCC (stereo not drawn) [Compound 35]
Luc Activity ([1]; Table 11): 1.40E+07 pg/g liver

Final Product % EE [2, 5]: 99%
Final Product PDI [2, 5]: 0.04
Final Product Z-avg [2, 5]: 77 nm
SMILES: CCCCCCCCCCC(CCCCCCC(=O)OCC(CCCCCC)CCCCCCCC)N(CCCCCCCCCC)C(=O)CCCN(C)C (stereo not drawn) [Compound 1, 2-Hexyldecyl 8-(N-decyl-4-(dimethylamino)butanamido)-octadecanoate]
Luc Activity ([1]; Table 12): 1.70E+08 pg/g liver

Final Product % EE [2, 5]: 94%
Final Product PDI [2, 5]: 0.04
Final Product Z-avg [2, 5]: 70 nm
SMILES: CCCCCCCCCCC(CCCCCCC(=O)OCC(CCCCCC)CCCCCCCC)N(OCCCN(C)C)C(=O)CCCCCCC(=O)OCC(CCCC)CCCCCC (stereo not drawn) [Compound 41, 2-hexyldecyl 8-{8-[(2-butyloctyl)oxy]-N-[3-(dimethylamino)propoxy]-8-oxooctanamido}octadecanoate]
Luc Activity ([1]; Table 12): 6.69E+06 pg/g liver

Final Product % EE [2, 6]: 98%
Final Product PDI [2, 6]: (0.17)
Final Product Z-avg [2, 6]: 94 nm
SMILES: CCCCCCCCCC(=O)N(CCCN(C)C)C(CCCCCCCCC)CC(=O)NN=C(CCCCCCCC)CCCCCCCC (stereo not drawn) [Compound 55, N-[3-(dimethylamino)propyl]-N-{1-[N′-(heptadecan-9-ylidene)hydrazinecarbonyl]undecan-2-yl}decanamide]
Luc Activity ([1]; Table 9): 1.22E+06 pg/g liver

Final Product % EE [2, 6]: 98%
Final Product PDI [2, 6]: (0.03)
Final Product Z-avg [2, 6]: 77 nm
SMILES: CCCCCCCCCC(CC(=O)OCC(CCCCCC)CCCCCCCC)N(CCCN(C)C)C(=O)CCCCC(=O)OCC(CCCC)CCCCCC (stereo not drawn) [Compound 21, 2-hexyldecyl 3-{6-[(2-butyloctyl)oxy]-N-[3-(dimethylamino)propyl]-6-oxohexanamido}dodecanoate]
Luc Activity ([1]; Table 9): 4.58E+07 pg/g liver

Final Product % EE [2, 5]: 98%
Final Product PDI [2, 5]: 0.06
Final Product Z-avg [2, 5]: 68 nm
SMILES: CCCCCCCCCCON(C(=O)CCCN(C)C)C(CCCCCCCCCC)CCCCCC(=O)OCC(CCCCCC)CCCCCCCC (stereo not drawn) [Compound 44, 2-Hexyldecyl 7-(N-(decyloxy)-4-(dimethylamino)butanamido)heptadecanoate]
Luc Activity ([1]; Table 12): 6.17E+07 pg/g liver

Final Product % EE [2, 3]: 96%
Final Product PDI [2, 3]: 0.04
Final Product Z-avg [2, 4]: 71 nm
SMILES: CCCCCCCCCC(CC(=O)OCC(CCCCCC)CCCCCCCC)N(CCCN(C)C)S(=O)(=O)CCCCCCCC (stereo not drawn) [Compound 48, 2-hexyldecyl 3-{N-[3-(dimethylamino)propyl]octane-1-sulfonamido}dodecanoate]
Luc Activity ([1]; Table 8): 6.49E+06 pg/g liver

Final Product % EE [2, 6]: 98%
Final Product PDI [2, 6]: (0.04)
Final Product Z-avg [2, 6]: 74 nm
SMILES: CCCCCCCCCC(CC(=O)OCC(CCCCCC)CCCCCCCC)N(CCCN(C)C)C(=O)CCCCCCC(=O)OCC(CCCC)CCCCCC (stereo not drawn) [Compound 22, 2-Hexyldecyl 3-(8-((2-butyloctyl)oxy)-N-(3-(dimethylamino)propyl)-8-oxooctanamido)-dodecanoate]
Luc Activity ([1]; Table 9): 4.71E+07 pg/g liver

Final Product % EE [2, 6]: 99%
Final Product PDI [2, 6]: (0.03)
Final Product Z-avg [2, 6]: 78 nm
SMILES: CCCCCCCCCCC(CCCC(=O)OCC(CCCCCC)CCCCCCCC)N(CCCN(C)C)C(=O)CCCCCCC(=O)OCC(CCCC)CCCCCC (stereo not drawn) [Compound 25, 2-Hexyldecyl 5-(8-((2-butyloctyl)oxy)-N-(3-(dimethylamino)propyl)-8-oxooctanamido)-pentadecanoate]
Luc Activity ([1]; Table 9): 7.76E+06 pg/g liver

SMILES: CCCCCCCCCCC(CCCCCCC(=O)OCC(CCCCCC)CCCCCCCC)N(CCCN(C)C)C(=O)CCCCCCC(=O)OCCC(CCCCC)CCCCC (stereo not drawn) [Compound 82]
Luc Activity ([1]; Table 12): 1.23E+07 pg/g liver

Final Product % EE [2, 6]: 96%
Final Product PDI [2, 6]: (0.10)
Final Product Z-avg [2, 6]: 97 nm
SMILES: CCCCC/C=C\CCCC(CCC/C=C\CCCCC)=NNC(=O)CC(CCCCCCCCC)N(CCCN(C)C)C(=O)CCCCCCCCC (stereo not drawn) [Compound 56, N-(3-(Dimethylamino)propyl)-N-(1-(2-((6Z,15Z)-henicosa-6,15-dien-11-ylidene)hydrazineyl)-1-oxododecan-3-yl)decanamide]
Luc Activity ([1]; Table 9): 9.00E+06 pg/g liver

Final Product % EE [2, 6]: 97%
Final Product PDI [2, 6]: (0.07)
Final Product Z-avg [2, 6]: 106 nm
SMILES: CCCCCCCCCC(=O)N(CCCN(C)C)C(CCCCCCCCC)CC(=O)NN(CCCCCCCC)CCCCCCCC (stereo not drawn) [Compound 53, N-[3-(dimethylamino)propyl]-N-[1-(N′,N′-dioctylhydrazinecarbonyl)undecan-2-yl]decanamide]
Luc Activity ([1]; Table 9): 8.02E+06 pg/g liver

Final Product % EE [2, 7]: 98%
Final Product PDI [2, 7]: 0.04
Final Product Z-avg [2, 7]: 86 nm
SMILES: CCCCCCCCCCC(CCCCCC(=O)OCCCCC(CCCCCCCC)CCCCCCCC)N(CCCN(C)C)C(=O)CCCCCCC(=O)OC(CC)CCCCCCCC (stereo not drawn) [Compound 27, 5-Octyltridecyl 7-(N-(3-(dimethylamino)propyl)-8-oxo-8-(undecan-3-yloxy)octanamido)-heptadecanoate]
Luc Activity ([1]; Table 11): 9.17E+06 pg/g liver

SMILES: CCCCCCCCCCC(CCCCCCC(=O)OCC(CCCCCC)CCCCCCCC)N(CCCN(C)C)C(=O)CCCCCCCCC(=O)OCC(CCCC)CCCCCC (stereo not drawn) [Compound 81]
Luc Activity ([1]; Table 12): 3.47E+07 pg/g liver

SMILES: CCCCCCCCCCC(CCCCCCC(=O)OC(CCCCCCCC)CCCCCCCC)N(CCCN(C)C)C(=O)CCCCCCC(=O)OCCC(CCCCC)CCCCC (stereo not drawn) [Compound 31]
Luc Activity ([1]; Table 12): 1.47E+07 pg/g liver

SMILES: CCCCCCCCCCC(CCCCCCC(=O)OCCC(CCCCC)CCCCC)N(CCCN(C)C)C(=O)CCCCCCC(=O)OCCC(CCCCC)CCCCC (stereo not drawn) [Compound 30]
Luc Activity ([1]; Table 12): 3.76E+07 pg/g liver

SMILES: CCCCCCCCCCOC(=O)CCCCCCC(=O)N(CCCN(C)C)C(CCCCCCCCCC)CCCCCCC(=O)OCC(CCCCCC)CCCCCCCC (stereo not drawn) [Compound 79]
Luc Activity ([1]; Table 11): 1.05E+07 pg/g liver

SMILES: CCCCCCCCCCC(CCCCCCC(=O)OCC(CCCCCC)CCCCCCCC)N(CCCCCCCC(=O)OCC(CCCCCC)CCCCCCCC)C(=O)CCCN(C)C (stereo not drawn) [Compound 63]
Luc Activity ([1]; Table 12): 6.23E+07 pg/g liver

SMILES: CCCCC/C=C\CCCC(CCC/C=C\CCCCC)CN(C(=O)CCCN(C)C)C(CCCCCCCCCC)CCCCCCC(=O)OCCCCCCCCCC (stereo not drawn) [Compound 36]
Luc Activity ([1]; Table 11): 5.54E+06 pg/g liver

SMILES: CCCCCCCCCCC(CCCCCCC(=O)OCC(CCCCCC)CCCCCCCC)N(CCCN(C)C)C(=O)CCCCCCCC(=O)OCC(CCCC)CCCCCC (stereo not drawn) [Compound 80]
Luc Activity ([1]; Table 12): 3.28E+07 pg/g liver

SMILES: CCCCCCCCCCC(CCCCCCC(=O)OCC(CCCCCC)CCCCCCCC)N(CCCN(C)C)C(=O)CCCCCCC(=O)OCc1cc(CCCCCC)cc(CCCCCC)c1 (stereo not drawn) [Compound 83]
Luc Activity ([1]; Table 12): 4.59E+07 pg/g liver

SMILES: CCCCC/C=C\CCCC(CCC/C=C\CCCCC)CN(C(=O)CCN(C)C)C(CCCCCCCCCC)CCCCCCC(=O)OCCCCCCCCCC (stereo not drawn) [Compound 37]
Luc Activity ([1]; Table 11): 3.01E+06 pg/g liver

SMILES: CCCCCCCCCCC(CCCCCCC(=O)OCC(CCCCCC)CCCCCCCC)N(CCCCCCCC(=O)OCC(CCCCCC)CCCCCCCC)C(=O)CCCCN(C)C (stereo not drawn) [Compound 64]
Luc Activity ([1]; Table 12): 9.76E+07 pg/g liver

— patent US20250332112A1, “IONIZABLE CATIONIC LIPIDS FOR LIPID NANOPARTICLES” (GENEVANT SCIENCES GMBH, priority 2022, published 2025)
